Patent US5932742A, “Arylsulfonylimidazolone derivatives as an antitumor agent” (priority 1996, dated 1999)
Converted amounts (≈) assume the structure as drawn. Where a name gives a salt, the structure may show the parent alone. Read-outs that look alike come from different tables or passages of the source.

What was measured:
Assay type in all cases: cell-based
[1] = system: KB (ATCC CCL 17): human epidermoid carcinoma; assay: In vitro antitumor activity, MTT assay, KB; conditions: Table 1; MTT, 48 hrs
Experimental: (§1) In vitro antitumor activity against human tumor cell lines
(§2) In vitro antitumor activity of the compounds according to the present invention was determined by MTT assay method against the following human tumor cell lines:
KB (ATCC CCL 17): human epidermoid carcinoma
(§3) In this test, the known antineoplastic compounds, Doxorubicin and Sulofenur, were used as the comparative agents.
(§4) Each of the tumor cells was cultured in RPMI 1640 media containing 10% fetal bovine serum, 100 IU/ml penicillin and 100 μg/ml streptomycin, and then periodically subcultured once or twice per week in trypsin-EDTA solution containing 0.05% trypsin and 0.53mM EDTA.4Na. The human tumor cell line thus obtained (10,000cells/100 μl) was plated on 96-well microplate and then cultured for 24 hrs at 37° C. in a 5% CO2 incubator. Test compound was dissolved in DMSO, sterilized with 0.22 μm PVDF filter, and then serially 5-fold diluted from 40 μg/ml to 0.00256μg/ml. 100 μl of the sample solution thus prepared and RPMI 1640 medium only (control group) were added to 96-well microplate containing the human tumor cell, respectively. The final concentration of the test compound was in the range from 20 μg/ml to 0.00128 μg/ml and the concentration of DMSO was below 0.5%. The cells were cultured for 48 hrs at 37° C. in a 5% CO2 incubator. MTT(3-(4,5-Dimethylthiazole-2-yl)-e,5-diphenyltetrazoliumbromide) was dissolved in physiological saline in a concentration of 2 mg/ml and the resulting solution was filtered through 0.22 μm PTFE filter. 25 μl of MTT solution thus prepared was added to each well of 96-well microplate and incubated for additional 4 hrs at 37° C. in a 5% CO2 incubator. Then, the content of microplate was centrifuged at 1000 rpm for 10 min, and supernatant was removed by flicking. The formazan formed from MTT by mitochondrial succinate dehydrogenase was dissolved in 100 μl of DMSO. The absorbance of each well was measured at 540nm by micro ELISA reader and the cytotoxicity was calculated by dividing the absorbance of test group by the absorbance of control group. After the calculated cytotoxicity (%) was plotted, the concentration of 50% tumor growth inhibition concentration (IC50) was estimated by Linear-Regression method.

[2] = system: Colo205 (ATCC CCL 222): human colon adenocarcinoma; assay: In vitro antitumor activity, MTT assay, Colo205; conditions: for IC50: Homo sapiens
Experimental: as §1, §2
Colo205 (ATCC CCL 222): human colon adenocarcinoma
as §3, §4

[3] = system: A549 (ATCC CCL 185): human lung carcinoma; assay: In vitro antitumor activity, MTT assay, A549; conditions: for IC50: Homo sapiens, A549, 48 h
Experimental: as §1, §2
A549 (ATCC CCL 185): human lung carcinoma
as §3, §4

[4] = system: SK-OV-3 (ATCC HTB 77): human ovarian adenocarcinoma; assay: In vitro antitumor activity, MTT assay, SK-OV-3; conditions: for IC50: Homo sapiens
Experimental: as §1, §2
SK-OV-3 (ATCC HTB 77): human ovarian adenocarcinoma
as §3, §4

[5] = system: K562 (ATCC CCL 243): human chronic myelogenous leukemia; assay: In vitro antitumor activity, MTT assay, K562; conditions: Homo sapiens, K562, 48 h
Experimental: as §1, §2
K562 (ATCC CCL 243): human chronic myelogenous leukemia
as §3, §4

[6] = COLO 205, Table 3, 48 hrs, read-out: IC50 (Col205)
[7] = COLO 205, Table 5, 48 hrs, read-out: IC50 (Colo205)

Row | SMILES | IC50 ([5]; Table 3, read-out: IC50 (K562)) [µg/mL] | IC50 [2, 6] [µg/mL] | IC50 ([3]; Table 3) [µg/mL] | IC50 ([4]; SK-OV-3, Table 3, 48 hrs) [µg/mL] | other results
1 | O=C(c1ccco1)N1CCc2cc(S(=O)(=O)n3cc(-c4ccccc4)[nH]c3=O)ccc21 [Example 16, 4-phenyl-1-(N-furanoylindoline-5-sulfonyl)-2-imidazolone] | – | – | – | – | IC50 (KB) [1]: 0.011 µg/mL (≈ 0.0253 µM); IC50 (Colo205) ([2]; Table 1, 48 hrs): 0.460 µg/mL (≈ 1.06 µM); IC50 (A549) ([3]; Table 1, 48 hrs): 0.065 µg/mL (≈ 0.149 µM); IC50 (SK-OV-3) ([4]; Table 1, 48 hrs): 2.074 µg/mL (≈ 4.76 µM)
2 | COc1ccc(NC(=O)N2CCc3cc(S(=O)(=O)N4CC(c5ccccc5)NC4=O)ccc32)cc1 (stereo not drawn) [Example 36, 4-phenyl-1-[N-(4-methoxyphenyl)carbamoylindoline-5-sulfonyl]-4,5-dihydro-2-imidazolone] | 6.92 (≈ 14 µM) | 0.391 (≈ 0.794 µM) | 0.18 (≈ 0.365 µM) | 0.047 (≈ 0.0954 µM) | –
3 | CSc1ccc(NC(=O)N2CCc3cc(S(=O)(=O)N4CC(c5ccccc5)NC4=O)ccc32)cc1 (stereo not drawn) [Example 37] | > 20 | 0.71 (≈ 1.4 µM) | 2.34 (≈ 4.6 µM) | 0.716 (≈ 1.41 µM) | –
4 | CNC(=S)N1CCc2cc(S(=O)(=O)N3CC(c4ccccc4)NC3=O)ccc21 (stereo not drawn) [Example 38, 4-phenyl-1-(N-methylthiocarbamoylindoline-5-sulfonyl)-4,5-dihydro-2-imidazolone] | 0.00452 (≈ 0.0109 µM) | 0.65 (≈ 1.56 µM) | 0.092 (≈ 0.221 µM) | 1.98 (≈ 4.75 µM) | –
5 | CCNC(=S)N1CCc2cc(S(=O)(=O)N3CC(c4ccccc4)NC3=O)ccc21 (stereo not drawn) [Example 39, 4-phenyl-1-(N-ethylthiocarbamoylindoline-5-sulfonyl)-4,5-dihydro-2-imidazolone] | 0.567 (≈ 1.32 µM) | 9.11 (≈ 21.2 µM) | 0.438 (≈ 1.02 µM) | 3.17 (≈ 7.36 µM) | –
6 | CCCCNC(=S)N1CCc2cc(S(=O)(=O)N3CC(c4ccccc4)NC3=O)ccc21 (stereo not drawn) [Example 41, 4-phenyl-1-(N-butylthiocarbamoylindoline-5-sulfonyl)-4 5-dihydro-2-imidazolone] | 2.05 (≈ 4.48 µM) | 2.4 (≈ 5.23 µM) | 0.584 (≈ 1.27 µM) | 0.897 (≈ 1.96 µM) | –
7 | O=C1NC(c2ccccc2)CN1S(=O)(=O)c1ccc2c(c1)CCN2C(=S)Nc1ccccc1 (stereo not drawn) [Example 42, 4-phenyl-1-(N-phenylthiocarbamoylindoline-5-sulfonyl)-4,5-dihydro-2-imidazolone] | 0.017 (≈ 0.0355 µM) | 2.14 (≈ 4.46 µM) | 0.095 (≈ 0.198 µM) | 10.5 (≈ 21.9 µM) | –
8 | COc1ccccc1NC(=O)N1CCc2cc(S(=O)(=O)N3CC(c4ccccc4)NC3=O)ccc21 (stereo not drawn) [Example 44, 4-phenyl-1-[N-(2-methoxyphenyl)carbamoylindoline-5-sulfonyl]-4,5-dihydro-2-imidazolone] | 0.29 (≈ 0.589 µM) | 1.47 (≈ 2.97 µM) | 0.135 (≈ 0.274 µM) | 0.273 (≈ 0.554 µM) | –
9 | Cc1ccc(NC(=O)N2CCc3cc(S(=O)(=O)N4CC(c5ccccc5)NC4=O)ccc32)cc1 (stereo not drawn) [Example 45, 4-phenyl-1-[N-(4-methylphenyl)carbamoylindoline-5-sulfonyl]-4,5-dihydro-2-imidazolone] | 1.03 (≈ 2.17 µM) | 3.27 (≈ 6.85 µM) | 0.311 (≈ 0.653 µM) | 0.813 (≈ 1.71 µM) | –
10 | O=C1NC(c2ccccc2)CN1S(=O)(=O)c1ccc2c(c1)CCN2C(=S)Nc1ccc(F)cc1 (stereo not drawn) [Example 46, 4-phenyl-1-[N-(4-fluorophenyl)thiocarbamoylindoline-5-sulfonyl]-4,5-dihydro-2-imidazolone] | 3.94 (≈ 7.94 µM) | 8.74 (≈ 17.6 µM) | 3.29 (≈ 6.63 µM) | 3.13 (≈ 6.3 µM) | –
11 | C[C@H](N)C(=O)Nc1ccc(C(=O)N2CCc3cc(S(=O)(=O)N4C[C@H](c5ccccc5)NC4=O)ccc32)cc1 [Example 66, (S)-(+)-4-phenyl-1-[N-{4-(2-aminopropanoyl)aminobenzoyl}indoline-5-sulfonyl]-4,5-dihydro-2-imidazolone.HCl] | – | – | – | – | IC50 ([5]; Table 5, read-out: IC50 (K562)): 3.57 µg/mL; IC50 [2, 7]: 0.77 µg/mL; IC50 ([3]; Table 5): 0.112 µg/mL; IC50 ([4]; SK-OV-3, Table 5, 48 hrs): 0.259 µg/mL
12 | NCC(=O)Nc1ccc(C(=O)N2CCc3cc(S(=O)(=O)N4C[C@H](c5ccccc5)NC4=O)ccc32)cc1 [Example 67, (S)-(+)-4-phenyl-1-[N-{4-(2-aminoacetyl)aminobenzoyl}indoline-5-sulfonyl]-4,5-dihydro-2-imidazolone.HCl] | – | – | – | – | IC50 ([5]; Table 5, read-out: IC50 (K562)): 1.32 µg/mL; IC50 [2, 7]: 0.971 µg/mL; IC50 ([3]; Table 5): 0.254 µg/mL; IC50 ([4]; SK-OV-3, Table 5, 48 hrs): 0.855 µg/mL
